In patent US9884832B2 (priority 2011, dated 2018):

Each compound was assayed against AM2 S31 (wild-type serine at position 31 in the M2 protein), influenza virus A/Udorn/72 (Influenza A virus, UniProt P0DOF5) (assay: cell-based). Settings: 100 uM; Xenopus oocytes; activity range class.
AM2 S31 (wild-type serine at position 31 in the M2 protein), influenza virus A/Udorn/72, sequence (P0DOF5 whole entry, looked up): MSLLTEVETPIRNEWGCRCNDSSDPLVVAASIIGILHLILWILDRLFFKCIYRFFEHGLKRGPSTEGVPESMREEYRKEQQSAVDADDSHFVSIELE
For `F[B-](F)(F)c1ccc(CNC23CC4CC(CC(C4)C2)C3)cc1.[K+]` [Example 2a], the “S31 OOcyte Inhibition at 100 uM (%)” value was “A ((A)=31-95%)”.

Same assay, conditions: 100 uM; Xenopus oocytes; activity range class; read-out: S31 OOcyte Inhibition at 100 uM (%)
`c1ccn2c(CNC34CC5CC(CC(C5)C3)C4)cnc2c1` [Example 203a, Adamantan-1-yl-imidazo[1,2-a]pyridin-3-ylmethyl-amine] showed an inhibition at 100 µM of 31 to 95%. With `Cc1ccsc1CNC12CC3CC(CC(C3)C1)C2` [Example 76a, N-((3-methylthiophen-2-yl)methyl)adamantan-1-amine] the inhibition at 100 µM was 31 to 95%. Compound `CSc1ccc(CNC23CC4CC(CC(C4)C2)C3)s1` [Example 90a] has an inhibition at 100 µM of 31 to 95%. For `c1csc(-c2ccc(-c3ccc(CNC45CC6CC(CC(C6)C4)C5)s3)s2)c1` [Example 157a, N-([2,2′:5′,2″-terthiophen]-5-ylmethyl)adamantan-1-amine], the inhibition at 100 µM was 0 to 30%. For `Oc1cc(-c2cccs2)ccc1CNC12CC3CC(CC(C3)C1)C2` [Example 49a], the inhibition at 100 µM was 0 to 30%. With `Brc1ccc(-c2cc(CNC34CC5CC(CC(C5)C3)C4)no2)cc1` [Example 121a, N-((5-(4-bromophenyl)isoxazol-3-yl)methyl)adamantan-1-amine] the inhibition at 100 µM was 0 to 30%. Work on `Cc1ccc(CNC23CC4CC(CC(C4)C2)C3)s1` [Example 78a, N-((5-methylthiophen-2-yl)methyl)adamantan-1-amine] yielded an inhibition at 100 µM of 31 to 95%. `c1csc(-c2nnc(CNC34CC5CC(CC(C5)C3)C4)o2)c1` [Example 147a, Adamantan-1-yl-(5-thiophen-2-yl-[1,3,4]oxadiazol-2-ylmethyl)-amine] gave an inhibition at 100 µM of 0 to 30%. `Cc1ccc(CNC23CC4CC(CC(C4)C2)C3)c(O)c1` [Example 51a] was tested, and the inhibition at 100 µM was 31 to 95%. For `Oc1ccc(CNC23CC4CC(CC(O)(C4)C2)C3)c(O)c1` [Example 196a, 4-[(3-Hydroxy-adamantan-1-ylamino)-methyl]-benzene-1,3-diol], the inhibition at 100 µM was 0 to 30%. `c1csc(-c2ccc(CNC34CC5CC(CC(C5)C3)C4)cc2)c1` [Example 29a, N-(4-(Thiophen-2-yl)benzyl)adamantan-1-amine methanesulfonate] gave an inhibition at 100 µM of 0 to 30%. With `c1cc2cc(CNC34CC5CC(CC(C5)C3)C4)ccc2s1` [Example 41a, N-(benzo[b]thiophen-5-ylmethyl)adamantan-1-amine] the inhibition at 100 µM was 31 to 95%. `c1cc(CNC23CC4CC(CC(C4)C2)C3)cc(-c2cccs2)c1` [Example 34a, N-(3-(thiophen-2-yl)benzyl)adamantan-1-amine] gave an inhibition at 100 µM of 0 to 30%. `Clc1ccc(COc2ccc(CNC34CC5CC(CC(C5)C3)C4)cc2)cc1` [Example 16a, Adamantan-1-yl-[4-(4-chloro-benzyloxy)-benzyl]-amine] showed an inhibition at 100 µM of 31 to 95%. `CCOc1ccc(CNC23CC4CC(CC(C4)C2)C3)cc1` [Example 1a, Adamantan-1-yl-(4-ethoxy-benzyl)-amine] was tested, and the inhibition at 100 µM was 0 to 30%. In the case of `COc1ccc(-c2cc(CNC34CC5CC(CC(C5)C3)C4)on2)cc1` [Example 122a, N-((3-(4-methoxyphenyl)isoxazol-5-yl)methyl)adamantan-1-amine], the inhibition at 100 µM is reported as 0 to 30%. For `COc1ccc2cc(CNC34CC5CC(CC(C5)C3)C4)[nH]c2c1` [Example 186a, N-((6-methoxy-1H-indol-2-yl)methyl)adamantan-1-amine], the inhibition at 100 µM was 0 to 30%. With `Cn1c(CNC23CC4CC(CC(C4)C2)C3)nc2ccccc21` [Example 180a, Adamantan-1-yl-(1-methyl-1H-benzoimidazol-2-ylmethyl)-amine] the inhibition at 100 µM was 0 to 30%. For `c1csc(-c2ccc(CNC34CC5CC(CC(C5)C3)C4)cn2)c1` [Example 58a, N-((6-(thiophen-2-yl)pyridin-3-yl)methyl)adamantan-1-amine], the inhibition at 100 µM was 31 to 95%. Work on `c1csc(-c2csc(CNC34CC5CC(CC(C5)C3)C4)c2)c1` [Example 140a, Adamantan-1-yl-[2,3′]bithiophenyl-5′-ylmethyl-amine] yielded an inhibition at 100 µM of 0 to 30%. For `c1cc(CNC23CC4CC(CC(C4)C2)C3)cc(-c2ccco2)c1` [Example 30a, N-(3-(Furan-2-yl)benzyl)adamantan-1-amine], the inhibition at 100 µM was 0 to 30%.

Same assay, conditions: Table 1; 100 uM; Xenopus oocytes, pH 5.5, -20 mV; read-out: S31 OOcyte Inhibition at 100 uM (%)
`COc1cc(CNC23CC4CC(CC(C4)C2)C3)ccc1O` [Example 50, 4-(Adamantan-1-ylaminomethyl)-2-methoxy-phenol] showed an inhibition at 100 µM of 31 to 95%. With `Oc1ccc(CN2CCC3(CCCCC3)CC2)c(O)c1` [Example 115, 4-(3-Aza-spiro[5.5]undec-3-ylmethyl)-benzene-1,3-diol] the inhibition at 100 µM was 31 to 95%. Compound `CSc1ccc(CNC23CC4CC(CC(C4)C2)C3)cc1` [Example 23, Adamantan-1-yl-(4-methylsulfanyl-benzyl)-amine] has an inhibition at 100 µM of 0 to 30%. `C[Si](C)(C)CCCNCc1ccc(O)cc1O` [Example 113, 4-[(3-Trimethylsilanyl-propylamino)-methyl]-benzene-1,3-diol] was tested, and the inhibition at 100 µM was 31 to 95%. Compound `Cc1cc(CNC23CC4CC(CC(C4)C2)C3)ccc1O` [Example 51, 4-(Adamantan-1-ylaminomethyl)-2-methyl-phenol] has an inhibition at 100 µM of 31 to 95%. For `Fc1ccc(C(F)(F)F)cc1CNC12CC3CC(CC(C3)C1)C2` [Example 62, Adamantan-1-yl-(2-fluoro-5-trifluoromethyl-benzyl)-amine], the inhibition at 100 µM was 0 to 30%. In the case of `N#Cc1ccc(CNC23CC4CC(CC(C4)C2)C3)cc1` [Example 14, 4-(Adamantan-1-ylaminomethyl)-benzonitrile], the inhibition at 100 µM is reported as 31 to 95%. `c1cnc2sc(CNC34CC5CC(CC(C5)C3)C4)cc2c1` [Example 90, Adamantan-1-yl-thieno[2,3-b]pyridin-2-ylmethyl-amine] was tested, and the inhibition at 100 µM was 0 to 30%. `FC(F)(F)Sc1ccc(CNC23CC4CC(CC(C4)C2)C3)cc1` [Example 26, Adamantan-1-yl-(4-trifluoromethylsulfanyl-benzyl)-amine] showed an inhibition at 100 µM of 0 to 30%. Work on `Oc1cccc(CNC23CC4CC(CC(C4)C2)C3)c1` [Example 31, 3-(Adamantan-1-ylaminomethyl)-phenol] yielded an inhibition at 100 µM of 31 to 95%. `OC1CCN(C2C3CC4CC(C3)CC2C4)CC1` (stereo not drawn) [Example 104, 1-Adamantan-2-yl-piperidin-4-ol] gave an inhibition at 100 µM of 0 to 30%. With `Oc1ccc(/C=N/C23CC4CC(CC(C4)C2)C3)c(O)c1` [Example 7] the inhibition at 100 µM was 31 to 95%. `c1cnn(-c2ccc(CNC34CC5CC(CC(C5)C3)C4)cc2)c1` [Example 35, Adamantan-1-yl-(4-pyrazol-1-yl-benzyl)-amine] was tested, and the inhibition at 100 µM was 0 to 30%. For `Oc1ccc(CNC23CC4CCC(CC(C4)C2)C3)c(O)c1` [Example 110, 4-(Tricyclo[4.3.1.13,8]undec-1-ylaminomethyl)-benzene-1,3-diol], the inhibition at 100 µM was 31 to 95%. In the case of `Brc1ccc(CNC23CC4CC(CC(C4)C2)C3)cc1` [Example 41, N-(4-Bromobenzyl)adamantan-1-amine], the inhibition at 100 µM is reported as 31 to 95%. `CC(NC1C2CC3CC(C2)CC1C3)c1ccc(O)cc1O` (stereo not drawn) [Example 102, 4-[1-(Adamantan-2-ylamino)-ethyl]-benzene-1,3-diol] gave an inhibition at 100 µM of 31 to 95%. `c1coc(COc2ccc(CNC34CC5CC(CC(C5)C3)C4)cc2)c1` [Example 21, Adamantan-1-yl-[4-(furan-2-ylmethoxy)-benzyl]-amine] showed an inhibition at 100 µM of 31 to 95%.

Same assay, conditions: Table 3; 100 uM; Xenopus oocytes, pH 5.5, -20 mV; read-out: S31 OOcyte Inhibition at 100 uM (%)
With `c1ccc(-c2cnc(CNC34CC5CC(CC(C5)C3)C4)[nH]2)cc1` [Example 53b, N-((5-phenyl-1H-imidazol-2-yl)methyl)adamantan-1-amine] the inhibition at 100 µM was 0 to 30%. `Clc1ncc(CNC23CC4CC(CC(C4)C2)C3)s1` [Example 13b, N-((2-chlorothiazol-5-yl)methyl)adamantan-1-amine] gave an inhibition at 100 µM of 31 to 95%. In the case of `c1cc2nc(CNC34CC5CC(CC(C5)C3)C4)sc2s1` [Example 77b, Adamantan-1-yl-thieno[3,2-d]thiazol-2-ylmethyl-amine], the inhibition at 100 µM is reported as 0 to 30%. `c1cnc2[nH]c(CNC34CC5CC(CC(C5)C3)C4)nc2c1` [Example 82b, N-((3H-imidazo[4,5-b]pyridin-2-yl)methyl)adamantan-1-amine] was tested, and the inhibition at 100 µM was 0 to 30%. In the case of `Cc1nnc(CNC23CC4CC(CC(C4)C2)C3)o1` [Example 17b, N-((5-methyl-1,3,4-oxadiazol-2-yl)methyl)adamantan-1-amine], the inhibition at 100 µM is reported as 0 to 30%. Compound `Cc1nc(CNC23CC4CC(CC(C4)C2)C3)cs1` [Example 12b, N-((2-methylthiazol-4-yl)methyl)adamantan-1-amine] has an inhibition at 100 µM of 31 to 95%. In the case of `CC(C)Cc1nc(CNC23CC4CC(CC(C4)C2)C3)no1` [Example 22b, N-((5-isobutyl-1,2,4-oxadiazol-3-yl)methyl)adamantan-1-amine], the inhibition at 100 µM is reported as 0 to 30%. With `CC(C)c1cc(CNC23CC4CC(CC(O)(C4)C2)C3)no1` [Example 85b, (1s,3r,5R,7S)-3-(((5-isopropylisoxazol-3-yl)methyl)amino)adamantan-1-61] the inhibition at 100 µM was 0 to 30%. Work on `CC(C)(C)c1ncc(CNC23CC4CC(CC(C4)C2)C3)s1` [Example 20b, N-((2-(tert-butyl)thiazol-5-yl)methyl)adamantan-1-amine] yielded an inhibition at 100 µM of 0 to 30%. `CC(NC12CC3CC(CC(C3)C1)C2)c1ccc(C(C)(C)C)cc1` (stereo not drawn) [Example 3b, N-(1-(4-(tert-butyl)phenyl)ethyl)adamantan-1-amine] was tested, and the inhibition at 100 µM was 0 to 30%. `COc1ccc(-c2nc(CNC34CC5CC(CC(C5)C3)C4)no2)c(OC)c1` [Example 34b, N-((5-(2,4-dimethoxyphenyl)-1,2,4-oxadiazol-3-yl)methyl)adamantan-1-amine] showed an inhibition at 100 µM of 0 to 30%. `COc1ncc(CNC23CC4CC(CC(C4)C2)C3)cn1` [Example 55b, N-((2-methoxypyrimidin-5-yl)methyl)adamantan-1-amine] showed an inhibition at 100 µM of 0 to 30%. For `Oc1cc(F)ccc1CNC12CC3CC(CC(C3)C1)C2` [Example 6b], the inhibition at 100 µM was 31 to 95%. `CCCc1cc(CNC23CC4CC(CC(C4)C2)C3)no1` [Example 26b, N-((5-propylisoxazol-3-yl)methyl)adamantan-1-amine] showed an inhibition at 100 µM of 0 to 30%. `Cc1noc(C)c1-c1nc(CNC23CC4CC(CC(C4)C2)C3)no1` [Example 25b, N-((5-(3,5-dimethylisoxazol-4-yl)-1,2,4-oxadiazol-3-yl)methyl)adamantan-1-amine] was tested, and the inhibition at 100 µM was 0 to 30%.
